# Results from patent US10345292B2, “Mammalian cell lines expressing functional nematode acetylcholine receptors and use thereof for high-throughput screening assays” (priority 2014, dated 2019).
# Read-outs that look alike come from different tables or passages of the source.
# Legend:
# [1] = test system: Dim ACR-16/Dim RIC3 stable cell line; assay: Ca2+ measurement in 384-well plate format on FDSS6000 (Fluo-4AM); type: cell-based, Dirofilaria immitis
# [2] = biological target: T1, Hco ACR-16/Hco RIC3 stable cell line (Haemonchus contortus, UniProt A9Y2C3); assay: as above; type: cell-based
# T1 sequence (A9Y2C3 1-494): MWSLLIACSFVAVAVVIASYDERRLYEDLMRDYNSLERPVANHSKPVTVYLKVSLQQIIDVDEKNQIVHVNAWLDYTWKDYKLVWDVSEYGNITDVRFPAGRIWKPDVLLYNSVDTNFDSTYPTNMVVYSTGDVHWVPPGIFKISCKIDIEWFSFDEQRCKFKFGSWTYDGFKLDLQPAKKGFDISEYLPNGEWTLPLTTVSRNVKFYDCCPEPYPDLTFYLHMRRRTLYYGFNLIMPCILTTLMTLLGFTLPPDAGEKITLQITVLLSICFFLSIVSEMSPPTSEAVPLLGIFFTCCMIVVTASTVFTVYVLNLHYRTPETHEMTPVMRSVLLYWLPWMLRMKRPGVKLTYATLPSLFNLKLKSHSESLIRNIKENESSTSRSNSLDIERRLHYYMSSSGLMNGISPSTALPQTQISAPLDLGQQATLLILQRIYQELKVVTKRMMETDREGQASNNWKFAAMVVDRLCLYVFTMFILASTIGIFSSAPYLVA
# [3] = biological target: T2, Hco ACR-16/hRIC3 cell line (Haemonchus contortus, UniProt A9Y2C3); assay: as above; type: cell-based
# T2 sequence (A9Y2C3 1-494): T1 sequence (A9Y2C3 1-494)
# T2 sequence (Q7Z5B4 29-369 partner): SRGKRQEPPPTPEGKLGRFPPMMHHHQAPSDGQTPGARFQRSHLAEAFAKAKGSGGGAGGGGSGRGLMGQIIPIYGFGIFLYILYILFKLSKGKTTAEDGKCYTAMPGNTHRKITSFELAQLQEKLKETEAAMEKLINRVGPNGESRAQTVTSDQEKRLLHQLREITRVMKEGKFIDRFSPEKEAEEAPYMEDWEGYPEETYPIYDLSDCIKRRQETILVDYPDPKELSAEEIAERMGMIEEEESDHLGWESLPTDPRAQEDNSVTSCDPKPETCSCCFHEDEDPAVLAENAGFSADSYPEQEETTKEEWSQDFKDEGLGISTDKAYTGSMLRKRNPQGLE
# [4] = test system: Hco ACR-16/hRIC3 stable cell line (Flp-In-293-Hco ACR-16 hRic3); type: cell-based, Haemonchus contortus; design: AUC, Mean / AUC, Median: unit not given beside the values
structure (smiles),measurement,setting,value
COc1cc(OC)c(NC(=O)Nc2cc(C)on2)cc1Cl [PNU-120956],EC50,"[1]; allosteric modulator response curve, read-out: EC50 (FIG. 12)",2400 nM
same,EC50,"[2]; Revealed by co-application of EC100 orthosteric reference agonist, read-out: EC50 value",1400 nM
same,EC50,"[3]; four-parameter logistic fit, cell line not named in legend, read-out: XC50 from concentration-response curve (FIG. 8)",160 nM
CC(=O)OCC[N+](C)(C)C [Acetylcholine],EC50,[3],480 nM
Clc1ccc(C2CC3CCC2N3)cn1 (stereo not drawn) [Epibatidine],Signal amplitude with 10 μM PNU120596 + 300 nM epibatidine application,[1],450 RFU
same,EC50,"[1]; read-out: EC50 (FIG. 10, FIG. 11)",10 nM
same,EC50,[1]; read-out: EC50 value,5 nM
same,EC50,[2],5 nM
same,Signal amplitude with 10 μM PNU120596 + 300 nM epibatidine application,[2]; 24 h @ 37° C.,680 RFU
same,Signal amplitude with 10 μM PNU120596 + 300 nM epibatidine application,[2]; 24 h @ 37° C. + 24 h @ 30° C.,1601 RFU
same,EC50,[3],6 nM
same,Signal amplitude with 10 μM PNU120596 + 300 nM epibatidine application,[3]; 24 h @ 37° C.,1503 RFU
same,Signal amplitude with 10 μM PNU120596 + 300 nM epibatidine application,[3]; 24 h @ 37° C. + 24 h @ 30° C.,2160 RFU
same,"AUC, Mean",[4],271.25
same,"AUC, Median",[4],253.67
same,"Ratio, Mean",[4],2.51
same,"Ratio, Median",[4],2.15
same,"Rmax, Mean",[4],2.62
same,"Rmax, Median",[4],2.34
same,"Rmin, Mean",[4],1.02
same,"Rmin, Median",[4],1.04
CN1CCCC1c1cccnc1 (stereo not drawn) [Nicotine],EC50,"[1]; read-out: EC50 (FIG. 10, FIG. 11), orthosteric reference agonist, concentration response curve",350 nM
same,EC50,"[1]; read-out: EC50 value, Revealed by co-application of PNU-120956",400 nM
same,EC50,[3],200 nM
